Marks after values point to notes of the source that are not given here.
Experiments:
cisplatin-induced NF-κB = test: NF-κB luciferase assay in HeLa cells stimulated with cisplatin; type: cell-based; conditions: Homo sapiens, 3 μM (3 μM total for combinations), n = 3, read-out: Mean % inhibition of cisplatin-induced NFkB ± SD
Description: The induction of NF-κB by cisplatin and other chemotherapies is known to be associated with neuropathy and nephrotoxicity. In this example, the effect of unencapsulated DIM and EA, and the nanocapsules cisplatin-induced NF-κB was studied using HeLa cells which expressed NF-κB.
HeLa cells were seeded at 1×10^5 cells in 2 ml/well in 6-well plates at 37° C. for 24 hours. The doses of the test compounds were based on preliminary studies. Test compounds (nanocapsules containing DIM, nanocapsules containing E&, nanocapsules containing DIM and EA, unencapsulated DIM, and unencapsulated EA) were added at concentrations ranging from 1-3 μM to the plate with fresh medium including 0.5% FBS and incubated at 37° C. in 5% CO2 for an additional 3 hours. For induction of transcription and to test the biological response of the promoters, the cell line stimulated with cisplatin (Sigma) and the cells were incubated at 37° C. in 5% CO2 for 24 hours. The luciferase activity determined by using the luciferase assay system (Promega, Madison, Wis., US). […] Luminescence was immediately measured using Glomax 20/20 Illuminometer (Promega). Luciferase expression of each test compound was quantified as the relative light units (RLU), normalized to readings of control wells, and expressed as relative NF-κB reporter activity. The mean % inhibitory effects of the compounds were calculated.

[1] = test system: SUIT2 pancreatic cancer cells; test: MTT cell viability/proliferation assay, SUIT2; type: cell-based, human; conditions: SUIT2, 24 hours, 1 μg/ml
Description: SUIT2-luc cells were grown in DMEM supplemented with 5% fetal bovine serum, 1% penicillin, and 1% streptomycin. Cells were cultured at 37° C. to sub-confluence and treated with 0.25% w/v typsin/EDTA to affect cell release from culture flask. After washing cells with culture medium, cells were suspended in DMEM (free of phenol red and fetal bovine serum) and counted.
SUIT2 cells were subjected to treatment with unencapsulated DIM, unencapsulated EA, combinations thereof, and the nanocapsules containing DIM and/or EA at concentrations of the bioactive compounds ranging from 0.1 to 10 μg. Briefly, cells were seeded at a density of 10^4 cells/well in 96-well plates, and then incubated with compounds and nanocapsules for 24 hours. Cell viability/proliferation was determined by MTT assay, as per the manufacturer's protocol. MTT solution was added to each well, and cells were further incubated for 4 hours at 37° C. The formed dye was solubilized by the addition of 50 μL of DMSO and incubated for 10 min at 37° C. The optical density of each well was determined using an ELISA plate reader at an activation wavelength of 570 nm and reference wavelength of 650 nm. The percentage of viable cells was determined by comparison to untreated control cells.

SUIT2 pancreatic tumor = test: CAM pancreatic cancer cell implant model (tumor growth, tumor angiogenesis, IVIS bioluminescence); type: in vivo, chick embryo; conditions: for suppression of vascular pattern / tumor angiogenesis of pancreatic tumor: 1 μg/CAM, 3 days of incubation, nanocapsules versus unencapsulated; for viable pancreatic cancer cells, bioluminescence (IVIS): SUIT2-luc tumors, ex vivo imaging
Description: To determine the relative potency of different nanocapsules and unencapsulated bioactive compounds, they were tested in the CAM pancreatic cancer cell implant model of tumor growth and tumor angiogenesis by modifying published protocols (Marcinkiewicz C. Weinreb P H, Calvete J J, Kisiel D G, Mousa S A, Tuszynski G P, Lobb R R. A Potent Selective Inhibitor of alpha1beta1 Integrin in Vitro and Angiogenesis in Vivo. Cancer Res. 2003; 63(9): 2020-2023; and Deryugina E I and Quigley J P: Chick Embryo Chorioallantoic Membrane Models to Quantify Angiogenesis induced by inflammatory and tumor cells or purified effector molecules. Methods in Enzymol. 2008; 444: 21-41, each incorporated herein by reference in their entirety).
A 7-day old chick embryo were purchased from Spafas, Inc. (Preston, Conn.) and incubated at 37° C. with 55% relative humidity. A hypodermic needle was used to make a small hole in the shell at the air sac and a second hole will be made on the broadside of the egg, directly over an avascular portion of the embryonic membrane that was identified by candling. A false air sac was created beneath the second hole by the application of negative pressure at the first hole, causing the CAM to separate from the shell. […] Treatment effects (Tumor growth, and tumor angiogenesis were determined 7 days after tumor cell implantation. For these studies, Matrigel® (BD Bioscience, San Jose Calif.) were thawed overnight at 4° C. and placed on ice. Cells in exponential growth phase were harvested using 0.25% trypsin-EDTA washed and suspended in medium. Only suspensions of single cells with a viability exceeding 95% were used. Approximately 1×10^6 cells in 30 μL of medium mixed with same volume (30 μL) of Matrigel was implanted on the chorioallantoic membrane.
After incubation at 37° C. with 55% relative humidity for 3 days, the CAM tissue directly beneath each filter disk was resected from control and treated CAM samples. […] Digital images of CAM sections exposed to filters were collected, using a 3-CCD color video c vera system (Toshiba America, New York, N.Y.), and analyzed with Image-Pro software (Media Cybernetics, Silver Spring, Md.). The numbers of vessel branch points contained in a circular region equal to the area of each filter disk were counted. One image was counted in each CAM preparation, and findings from 6-8 CAM preparations group were analyzed for each treatment condition.
Results presented as mean tumor weight (mg) per treatment group and tumor hemoglobin (mg/dl)±SD, n=8 eggs per group. The effect of these treatments was determined after 7 days of implantation. […]

[2] = Plasma cardiac troponin in MCF-7 tumor bearing mice; type: in vivo
[3] = test system: breast cancer MCF-7 tumor; test: Subcutaneous xenograft in nude mice, breast cancer MCF-7; type: in vivo; conditions: SC, mean ± SEM, n = 4-5 animals/group
Description: Immunodeficient, female NCr nude mice aged 5-6 weeks and weighing between […] were maintained under specific pathogen-free conditions and housed under controlled conditions of temperature (20-24° C.) and humidity (60-70%) and 12 h light/dark cycle with ad libitum access to water and food. Mice were allowed to acclimatize for 5 days prior to the start of study.
Xenografts containing 1×10^6 to 2×10^6 tumor cells (e.g., pancreatic SUIT2, colon HT-29, glioblastoma U87, or breast cancer MCF-7 cells) were implanted subcutaneously in a mouse flank. There were 2 grafts mouse and there were 4 mice in each group (control, treatments using vehicle). DMSO or ethyl acetate used during the preparation of nanocapsules was totally removed by dialysis and the vehicle used to disperse the DIM or EA and their nanocapsule forms was phosphate buffered saline (PBS).
Tumors were excised at the end of the study from all treatment arms, which included control; DIM; EA; nanocapsule containing DIM; nanocapsule containing EA; nanocapsule containing DIM acid EA; nanocapsule containing cisplatin; nanocapsule containing doxorubicin; nanocapsule containing cisplatin, DIM, and EA; and nanocapsule containing doxorubicin, DIM, and EA. Tumor growth was measured.

Structure (SMILES) | inhibition at 3 µM (cisplatin-induced NF-κB) [%] | effect on cell viability/proliferation [1] | suppression of vascular pattern / tumor angiogenesis of pancreatic tumor (SUIT2 pancreatic tumor) | viable pancreatic cancer cells, bioluminescence (IVIS) (SUIT2 pancreatic tumor) | plasma cardiac troponin ([2]; MCF-7 tumor bearing mice) | Troponin (% from control) ([2]; mice, SC) | Mean Breast (MCF-7) Tumor Growth [3] [g]
c1ccc2c(Cc3c[nH]c4ccccc34)c[nH]c2c1 [DIM, 3,3′-diindolylmethane] | 20 ± 5 | did not show any significant effect | mild suppression | statistically significant reduction |  |  | 
COc1cccc2c1C(=O)c1c(O)c3c(c(O)c1C2=O)C[C@@](O)(C(=O)CO)C[C@@H]3O[C@H]1C[C@H](N)[C@H](O)[C@H](C)O1 [DOX, doxorubicin] |  |  |  |  | large increase | +50-70%** | 0.70 ± 0.15
O=c1oc2c(O)c(O)cc3c(=O)oc4c(O)c(O)cc1c4c23 [Ellagic acid, ellagic acid] | 26 ± 4 | did not show any significant effect | mild suppression | statistically significant reduction |  |  | 
